Measurements: patent US6497900B2, “Effervescent base” (priority 1997, dated 2002)

Assay: Breakdown of acid-sensitive active substances in the effervescent system
Format: physicochemical
Conditions: in the effervescent system according to the invention, also in a stress situation

NC(N)=Nc1nc(CSCCC(N)=NS(N)(=O)=O)cs1 [famotidine]
tendency of active substance to break down and form decomposition products: substantially lower tendency
